# Experimental data reported in PMC7265341, “Quantifying CDK inhibitor selectivity in live cells” (Nature Communications, 2020).
# Where two headings read alike, the source gives them in different places.
# Experiments:
# [1] = target: CDK1/Cyclin E1 (Homo sapiens, UniProt P06493); assay: NanoBRET live-cell target engagement, CDK1-NanoLuc/Cyclin E1 in HEK-293; assay type: binding; settings: CDK1/E1
# [2] = target: CDK2/Cyclin E1 (Homo sapiens, UniProt P24941); assay: NanoBRET live-cell target engagement, CDK2-NanoLuc/Cyclin E1 in HEK-293; assay type: binding; settings: CDK2/E1; for IC50: read-out: IC50
# [3] = target: CDK3/Cyclin E1 (Homo sapiens, UniProt Q00526); assay: NanoBRET live-cell target engagement, CDK3-NanoLuc/Cyclin E1 in HEK-293; assay type: binding; settings: CDK3/E1
# [4] = target: CDK4/Cyclin D1 (Homo sapiens, UniProt P11802); assay: NanoBRET live-cell target engagement, NanoLuc-CDK4/Cyclin D1 in HEK-293; assay type: binding; settings: CDK4/D1; for IC50: read-out: IC50
# [5] = target: CDK5/CDK5R1 (Homo sapiens, UniProt Q00535); assay: NanoBRET live-cell target engagement, CDK5-NanoLuc/CDK5R1 in HEK-293; assay type: binding; settings: CDK5/CDK5R1
# [6] = target: CDK6/Cyclin D1 (Homo sapiens, UniProt Q00534); assay: NanoBRET live-cell target engagement, NanoLuc-CDK6/Cyclin D1 in HEK-293; assay type: binding; settings: CDK6/D1; for IC50: read-out: IC50
# [7] = target: CDK7 (Homo sapiens, UniProt P50613); assay: NanoBRET live-cell target engagement, NanoLuc-CDK7 in HEK-293; assay type: binding; settings: CDK7; for IC50: read-out: IC50
# [8] = target: CDK8/Cyclin C (Homo sapiens, UniProt P49336); assay: NanoBRET live-cell target engagement, NanoLuc-CDK8/Cyclin C in HEK-293; assay type: binding; settings: CDK8/C
# [9] = target: CDK9/Cyclin K (Homo sapiens, UniProt P50750); assay: NanoBRET live-cell target engagement, NanoLuc-CDK9/Cyclin K in HEK-293; assay type: binding; settings: CDK9/K
# [10] = target: CDK11B/Cyclin L2 (Homo sapiens, UniProt P21127); assay: NanoBRET live-cell target engagement, CDK11B-NanoLuc/Cyclin L2 in HEK-293; assay type: binding; settings: CDK11b/L2; for IC50: read-out: IC50
# [11] = target: CDK12/Cyclin K (Homo sapiens, UniProt Q9NYV4); assay: NanoBRET live-cell target engagement, CDK12-NanoLuc/Cyclin K in HEK-293; assay type: binding; settings: CDK12/K
# [12] = target: CDK13/Cyclin K (Homo sapiens, UniProt Q14004); assay: NanoBRET live-cell target engagement, CDK13-NanoLuc/Cyclin K in HEK-293; assay type: binding; settings: CDK13/K
# [13] = target: CDK14/Cyclin Y (Homo sapiens, UniProt O94921); assay: NanoBRET live-cell target engagement, CDK14-NanoLuc/Cyclin Y in HEK-293; assay type: binding; settings: CDK14/Y; for IC50: read-out: IC50
# [14] = target: CDK15/Cyclin Y (Homo sapiens, UniProt Q96Q40); assay: NanoBRET live-cell target engagement, NanoLuc-CDK15/Cyclin Y in HEK-293; assay type: binding
# [15] = target: CDK16/Cyclin Y (Homo sapiens, UniProt Q00536); assay: NanoBRET live-cell target engagement, CDK16-NanoLuc/Cyclin Y in HEK-293; assay type: binding; settings: CDK16/Y; for IC50: read-out: IC50
# [16] = target: CDK17/Cyclin Y (Homo sapiens, UniProt Q00537); assay: NanoBRET live-cell target engagement, CDK17-NanoLuc/Cyclin Y in HEK-293; assay type: binding; settings: CDK17/Y; for IC50: read-out: IC50
# [17] = target: CDK18/Cyclin Y (Homo sapiens, UniProt Q07002); assay: NanoBRET live-cell target engagement, CDK18-NanoLuc/Cyclin Y in HEK-293; assay type: binding; settings: CDK18/Y; for IC50: read-out: IC50
# [18] = target: CDK20/Cyclin H (Homo sapiens, UniProt Q8IZL9); assay: NanoBRET live-cell target engagement, NanoLuc-CDK20/Cyclin H in HEK-293; assay type: binding; settings: CDK20/H
# [19] = target: CDK19/Cyclin C (Homo sapiens, UniProt Q9BWU1); assay: NanoBRET live-cell target engagement, NanoLuc-CDK19/Cyclin C in HEK-293; settings: CDK19/C
# [20] = target: CDK10/Cyclin L2 (Homo sapiens, UniProt Q15131); assay: NanoBRET live-cell target engagement, CDK10-NanoLuc/Cyclin L2 in HEK-293; settings: CDK10/L2
# Chain of CDK10/Cyclin L2 (Q15131 whole entry): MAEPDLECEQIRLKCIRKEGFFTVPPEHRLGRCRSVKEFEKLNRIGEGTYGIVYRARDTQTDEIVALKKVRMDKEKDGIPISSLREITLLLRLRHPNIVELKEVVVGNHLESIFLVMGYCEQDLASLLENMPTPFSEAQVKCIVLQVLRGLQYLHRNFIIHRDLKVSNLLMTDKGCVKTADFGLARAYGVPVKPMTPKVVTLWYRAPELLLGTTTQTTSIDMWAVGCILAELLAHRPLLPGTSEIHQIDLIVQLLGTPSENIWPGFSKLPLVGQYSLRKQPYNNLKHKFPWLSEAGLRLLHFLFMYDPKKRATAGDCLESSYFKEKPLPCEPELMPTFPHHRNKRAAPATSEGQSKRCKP
# Chain of CDK19/Cyclin C (Q9BWU1 whole entry): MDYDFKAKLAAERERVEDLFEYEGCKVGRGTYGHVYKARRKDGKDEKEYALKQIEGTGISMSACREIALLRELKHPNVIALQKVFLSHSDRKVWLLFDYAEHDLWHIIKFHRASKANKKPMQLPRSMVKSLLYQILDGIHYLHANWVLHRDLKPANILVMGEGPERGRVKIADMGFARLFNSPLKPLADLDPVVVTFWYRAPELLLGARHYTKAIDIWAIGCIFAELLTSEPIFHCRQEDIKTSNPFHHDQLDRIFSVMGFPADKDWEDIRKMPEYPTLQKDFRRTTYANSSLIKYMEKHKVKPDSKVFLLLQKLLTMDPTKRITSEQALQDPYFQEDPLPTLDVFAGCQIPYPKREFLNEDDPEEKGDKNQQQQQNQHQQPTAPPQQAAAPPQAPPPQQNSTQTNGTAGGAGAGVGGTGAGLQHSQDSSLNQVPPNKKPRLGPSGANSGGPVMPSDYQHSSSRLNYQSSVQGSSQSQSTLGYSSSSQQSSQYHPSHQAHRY
# Chain of CDK19/Cyclin C (P24863 whole entry partner): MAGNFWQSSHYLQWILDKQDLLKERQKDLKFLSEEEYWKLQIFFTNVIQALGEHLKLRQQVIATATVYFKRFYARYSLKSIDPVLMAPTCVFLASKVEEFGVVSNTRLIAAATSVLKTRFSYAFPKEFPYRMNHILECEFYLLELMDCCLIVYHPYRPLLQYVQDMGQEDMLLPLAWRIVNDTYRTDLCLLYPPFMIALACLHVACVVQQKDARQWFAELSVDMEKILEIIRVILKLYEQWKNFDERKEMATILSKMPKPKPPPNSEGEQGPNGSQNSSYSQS
# Chain of CDK1/Cyclin E1 (P06493 whole entry): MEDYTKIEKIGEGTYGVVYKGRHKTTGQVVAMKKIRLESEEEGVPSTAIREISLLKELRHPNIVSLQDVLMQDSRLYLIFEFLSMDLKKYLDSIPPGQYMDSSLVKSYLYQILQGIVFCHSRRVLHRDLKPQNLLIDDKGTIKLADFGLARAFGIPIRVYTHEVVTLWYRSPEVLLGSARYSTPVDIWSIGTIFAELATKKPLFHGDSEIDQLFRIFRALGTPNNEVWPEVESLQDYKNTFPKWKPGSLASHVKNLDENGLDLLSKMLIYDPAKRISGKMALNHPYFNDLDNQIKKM
# Chain of CDK1/Cyclin E1 (P24864 whole entry partner): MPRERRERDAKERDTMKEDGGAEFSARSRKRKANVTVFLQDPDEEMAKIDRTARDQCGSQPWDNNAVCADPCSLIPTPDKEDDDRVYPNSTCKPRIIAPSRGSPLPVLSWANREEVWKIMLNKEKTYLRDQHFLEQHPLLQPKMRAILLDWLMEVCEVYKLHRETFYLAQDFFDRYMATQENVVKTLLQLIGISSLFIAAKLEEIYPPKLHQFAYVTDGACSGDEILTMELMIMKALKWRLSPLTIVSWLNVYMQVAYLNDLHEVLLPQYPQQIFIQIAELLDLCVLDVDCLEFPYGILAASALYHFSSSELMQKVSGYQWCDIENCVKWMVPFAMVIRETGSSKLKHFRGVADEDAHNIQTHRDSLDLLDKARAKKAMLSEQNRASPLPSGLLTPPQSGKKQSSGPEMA
# Chain of CDK7 (P50613 whole entry): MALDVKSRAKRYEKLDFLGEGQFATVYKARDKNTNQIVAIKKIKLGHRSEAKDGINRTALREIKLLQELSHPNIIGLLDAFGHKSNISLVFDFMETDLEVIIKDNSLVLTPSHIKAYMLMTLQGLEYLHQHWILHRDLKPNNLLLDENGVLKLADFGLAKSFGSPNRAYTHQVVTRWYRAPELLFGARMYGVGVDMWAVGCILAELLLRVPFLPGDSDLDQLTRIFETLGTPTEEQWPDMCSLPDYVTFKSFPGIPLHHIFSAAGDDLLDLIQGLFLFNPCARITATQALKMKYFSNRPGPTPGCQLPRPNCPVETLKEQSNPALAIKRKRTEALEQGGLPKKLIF
# Chain of CDK5/CDK5R1 (Q00535 whole entry): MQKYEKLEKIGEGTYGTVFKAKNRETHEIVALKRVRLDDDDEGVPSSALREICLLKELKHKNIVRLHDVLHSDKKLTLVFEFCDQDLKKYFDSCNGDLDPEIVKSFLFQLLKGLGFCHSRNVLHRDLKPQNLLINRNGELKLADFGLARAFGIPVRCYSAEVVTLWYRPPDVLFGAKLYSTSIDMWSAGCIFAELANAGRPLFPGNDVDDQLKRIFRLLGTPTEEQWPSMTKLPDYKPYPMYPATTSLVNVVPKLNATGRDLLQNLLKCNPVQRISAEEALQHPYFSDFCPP
# Chain of CDK5/CDK5R1 (Q15078 whole entry partner): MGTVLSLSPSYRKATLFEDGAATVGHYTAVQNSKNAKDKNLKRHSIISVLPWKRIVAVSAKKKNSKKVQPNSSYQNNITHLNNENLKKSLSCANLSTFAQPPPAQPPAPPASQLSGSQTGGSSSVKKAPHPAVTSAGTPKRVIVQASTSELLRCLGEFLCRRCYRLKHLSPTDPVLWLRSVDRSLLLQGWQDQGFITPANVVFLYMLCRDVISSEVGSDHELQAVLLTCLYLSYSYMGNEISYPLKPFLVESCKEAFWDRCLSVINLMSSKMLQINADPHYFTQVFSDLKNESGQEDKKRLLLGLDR
# Chain of CDK13/Cyclin K (O75909 whole entry): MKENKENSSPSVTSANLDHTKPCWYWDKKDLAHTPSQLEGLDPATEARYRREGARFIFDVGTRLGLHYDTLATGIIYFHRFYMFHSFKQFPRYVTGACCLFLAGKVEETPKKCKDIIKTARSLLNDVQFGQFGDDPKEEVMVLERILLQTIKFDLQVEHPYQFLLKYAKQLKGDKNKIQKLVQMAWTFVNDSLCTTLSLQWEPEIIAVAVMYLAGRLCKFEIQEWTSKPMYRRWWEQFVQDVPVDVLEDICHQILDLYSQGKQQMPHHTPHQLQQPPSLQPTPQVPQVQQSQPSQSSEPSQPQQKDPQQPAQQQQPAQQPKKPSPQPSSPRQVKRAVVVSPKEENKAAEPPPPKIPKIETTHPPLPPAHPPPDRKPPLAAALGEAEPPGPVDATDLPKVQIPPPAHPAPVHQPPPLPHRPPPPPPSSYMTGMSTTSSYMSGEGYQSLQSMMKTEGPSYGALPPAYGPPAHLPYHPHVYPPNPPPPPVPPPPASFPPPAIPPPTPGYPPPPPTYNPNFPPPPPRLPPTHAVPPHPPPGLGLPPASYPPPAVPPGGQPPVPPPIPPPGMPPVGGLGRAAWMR
# Chain of CDK13/Cyclin K (Q14004 other isoform, or with tags, fused parts or gaps): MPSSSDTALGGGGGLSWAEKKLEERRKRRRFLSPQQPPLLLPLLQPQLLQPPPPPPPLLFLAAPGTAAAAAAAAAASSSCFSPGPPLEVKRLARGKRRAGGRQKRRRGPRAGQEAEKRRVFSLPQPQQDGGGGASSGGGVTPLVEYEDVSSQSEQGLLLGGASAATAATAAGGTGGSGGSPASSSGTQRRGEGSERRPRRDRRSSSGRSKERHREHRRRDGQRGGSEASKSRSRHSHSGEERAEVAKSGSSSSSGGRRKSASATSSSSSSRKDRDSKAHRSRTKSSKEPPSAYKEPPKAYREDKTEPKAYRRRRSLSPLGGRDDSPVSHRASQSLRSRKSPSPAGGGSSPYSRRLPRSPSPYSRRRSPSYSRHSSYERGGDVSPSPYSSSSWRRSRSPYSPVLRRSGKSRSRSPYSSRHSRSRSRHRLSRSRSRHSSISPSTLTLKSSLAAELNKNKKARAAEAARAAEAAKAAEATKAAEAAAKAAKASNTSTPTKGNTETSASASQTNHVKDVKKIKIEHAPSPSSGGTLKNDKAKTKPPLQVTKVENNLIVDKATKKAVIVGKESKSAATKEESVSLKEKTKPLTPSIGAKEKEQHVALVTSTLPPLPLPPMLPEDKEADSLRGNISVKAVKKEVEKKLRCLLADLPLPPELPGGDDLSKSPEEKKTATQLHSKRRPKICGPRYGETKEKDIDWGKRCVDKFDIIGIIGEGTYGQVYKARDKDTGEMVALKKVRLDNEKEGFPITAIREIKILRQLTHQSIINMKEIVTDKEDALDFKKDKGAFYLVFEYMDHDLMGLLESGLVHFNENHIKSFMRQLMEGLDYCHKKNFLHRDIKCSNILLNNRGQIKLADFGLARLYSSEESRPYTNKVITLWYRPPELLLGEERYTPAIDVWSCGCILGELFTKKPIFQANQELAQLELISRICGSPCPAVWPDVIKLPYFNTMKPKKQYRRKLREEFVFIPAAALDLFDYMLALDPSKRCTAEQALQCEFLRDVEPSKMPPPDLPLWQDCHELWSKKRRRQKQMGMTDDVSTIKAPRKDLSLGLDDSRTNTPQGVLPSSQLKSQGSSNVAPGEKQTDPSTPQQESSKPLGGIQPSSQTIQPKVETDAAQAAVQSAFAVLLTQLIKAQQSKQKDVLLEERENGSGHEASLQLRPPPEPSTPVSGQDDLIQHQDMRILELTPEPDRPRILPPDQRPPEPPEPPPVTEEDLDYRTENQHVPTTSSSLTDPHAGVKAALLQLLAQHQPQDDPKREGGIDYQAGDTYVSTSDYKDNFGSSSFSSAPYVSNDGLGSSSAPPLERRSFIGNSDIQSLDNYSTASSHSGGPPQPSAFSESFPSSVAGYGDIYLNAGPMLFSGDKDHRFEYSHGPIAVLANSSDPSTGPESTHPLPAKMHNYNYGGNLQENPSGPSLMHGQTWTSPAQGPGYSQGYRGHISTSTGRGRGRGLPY
structure (smiles),measurement,setting,value
CC(C)c1c2cc(-c3ccnc(N[C@H]4CC[C@H](NC5CCOCC5)CC4)n3)ccc2nn1C [LY2857785],Inhibition at 10µM (%),[1]; average,76.5%
same,Inhibition at 10µM (%),[1]; experiment 1,76.1%
same,Inhibition at 10µM (%),[1]; experiment 2,76.9%
same,Inhibition at 10µM (%),[2]; average,85.9%
same,IC50,[2]; average (± SEM where n=3),660 nM
same,Inhibition at 10µM (%),[2]; experiment 1,85.1%
same,IC50,[2]; experiment 1,730 nM
same,Inhibition at 10µM (%),[2]; experiment 2,86.7%
same,IC50,[2]; experiment 2,590 nM
same,Inhibition at 10µM (%),[3]; average,89.1%
same,Inhibition at 10µM (%),[3]; experiment 1,89.3%
same,Inhibition at 10µM (%),[3]; experiment 2,88.9%
same,Inhibition at 10µM (%),[4]; average,97.1%
same,IC50,[4]; average (± SEM where n=3),40 nM
same,Inhibition at 10µM (%),[4]; experiment 1,97.8%
same,IC50,[4]; experiment 1,44 nM
same,Inhibition at 10µM (%),[4]; experiment 2,96.5%
same,IC50,[4]; experiment 2,36 nM
same,Inhibition at 10µM (%),[5]; average,68.7%
same,Inhibition at 10µM (%),[5]; experiment 1,68.7%
same,Inhibition at 10µM (%),[5]; experiment 2,68.7%
same,Inhibition at 10µM (%),[6]; average,96.5%
same,IC50,[6]; average (± SEM where n=3),110 nM
same,Inhibition at 10µM (%),[6]; experiment 1,96.6%
same,IC50,[6]; experiment 1,124 nM
same,Inhibition at 10µM (%),[6]; experiment 2,96.3%
same,IC50,[6]; experiment 2,98 nM
same,Inhibition at 10µM (%),[7]; average,92.6%
same,IC50,[7]; average (± SEM where n=3),31 nM
same,Inhibition at 10µM (%),[7]; experiment 1,91.7%
same,IC50,[7]; experiment 1,28 nM
same,Inhibition at 10µM (%),[7]; experiment 2,93.4%
same,IC50,[7]; experiment 2,34 nM
same,Inhibition at 10µM (%),[8]; average,83.7%
same,Inhibition at 10µM (%),[8]; experiment 1,88.4%
same,Inhibition at 10µM (%),[8]; experiment 2,79.0%
same,Inhibition at 10µM (%),[9]; average,97.9%
same,Inhibition at 10µM (%),[9]; experiment 1,98.0%
same,Inhibition at 10µM (%),[9]; experiment 2,97.9%
same,Inhibition at 10µM (%),[10]; average,94.8%
same,IC50,[10]; average (± SEM where n=3),24 nM
same,Inhibition at 10µM (%),[10]; experiment 1,95.7%
same,IC50,[10]; experiment 1,21 nM
same,Inhibition at 10µM (%),[10]; experiment 2,93.9%
same,IC50,[10]; experiment 2,27 nM
same,Inhibition at 10µM (%),[11]; average,43.6%
same,Inhibition at 10µM (%),[11]; experiment 1,48.1%
same,Inhibition at 10µM (%),[11]; experiment 2,39.1%
same,Inhibition at 10µM (%),[12]; average,26.3%
same,Inhibition at 10µM (%),[12]; experiment 1,28.2%
same,Inhibition at 10µM (%),[12]; experiment 2,24.3%
same,Inhibition at 10µM (%),[13]; average,90.6%
same,IC50,[13]; average (± SEM where n=3),510 nM
same,Inhibition at 10µM (%),[13]; experiment 1,90.3%
same,IC50,[13]; experiment 1,392 nM
same,Inhibition at 10µM (%),[13]; experiment 2,90.9%
same,IC50,[13]; experiment 2,630 nM
same,Inhibition at 10µM (%),"[14]; CDK15/Y, average",93.6%
same,IC50,"[14]; CDK15/Y, average (± SEM where n=3), read-out: IC50",320 nM
same,Inhibition at 10µM (%),"[14]; CDK15/Y, experiment 1",93.4%
same,IC50,"[14]; CDK15/Y, experiment 1, read-out: IC50",323 nM
same,Inhibition at 10µM (%),"[14]; CDK15/Y, experiment 2",93.9%
same,IC50,"[14]; CDK15/Y, experiment 2, read-out: IC50",320 nM
same,IC50,"[14]; live HEK-293, 2 h, mean ± S.E.M. (n=3) or mean (n=2), read-out: IC50 for CDK/cyclin complexes, CDK15/Y",320 nM
same,IC50,[15]; average (± SEM where n=3),160 nM
same,Inhibition at 10µM (%),[15]; experiment 1,82.9%
same,IC50,[15]; experiment 1,220 nM
same,Inhibition at 10µM (%),[15]; experiment 2,91.1%
same,IC50,[15]; experiment 2,91 nM
same,Inhibition at 10µM (%),[16]; average,90.5%
same,IC50,[16]; average (± SEM where n=3),41 nM
same,Inhibition at 10µM (%),[16]; experiment 1,89.7%
same,IC50,[16]; experiment 1,15 nM
same,Inhibition at 10µM (%),[16]; experiment 2,91.4%
same,IC50,[16]; experiment 2,67 nM
same,Inhibition at 10µM (%),[17]; average,96.0%
same,IC50,[17]; average (± SEM where n=3),290 nM
same,Inhibition at 10µM (%),[17]; experiment 1,91.6%
same,IC50,[17]; experiment 1,204 nM
same,Inhibition at 10µM (%),[17]; experiment 2,100.3%
same,IC50,[17]; experiment 2,370 nM
same,Inhibition at 10µM (%),[18]; experiment 1,39.4%
same,Inhibition at 10µM (%),[18]; experiment 2,39.8%
same,Inhibition at 10µM (%),[19]; average,82.9%
same,Inhibition at 10µM (%),[19]; experiment 1,90.1%
same,Inhibition at 10µM (%),[19]; experiment 2,75.7%
same,Inhibition at 10µM (%),[20]; average,80.7%
same,IC50,[20]; average (± SEM where n=3),600 nM
same,IC50,[20]; experiment 1,490 nM
same,Inhibition at 10µM (%),[20]; experiment 1,81.9%
same,IC50,[20]; experiment 2,710 nM
same,Inhibition at 10µM (%),[20]; experiment 2,79.4%
